Data as given in PubChem BioAssay (NCI).
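Where inhibition never reached the appropriate level, the endpoint shown equals the highest concentration tested. Otherwise, values were interpolated linearly from a five-concentration, 48-hour dose response in 96-well plates. TGI: concentration producing complete growth inhibition.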

Experiments:
Assay in all cases: inhibition of tumour cell growth, NCI panel, 48 h
HL-60(TB) leukemia = tested on: HL-60(TB) leukemia
A498 renal = tested on: A498 renal
HOP-62 NSCLC = tested on: HOP-62 NSCLC
SN12C renal = tested on: SN12C renal
MOLT-4 leukemia = tested on: MOLT-4 leukemia
CAKI-1 renal = tested on: CAKI-1 renal
M14 melanoma = tested on: M14 melanoma
OVCAR-4 ovarian = tested on: OVCAR-4 ovarian
MCF7 breast = tested on: MCF7 breast
RXF 393 renal = tested on: RXF 393 renal

| Structure (SMILES) | TGI (HL-60(TB) leukemia) | TGI (A498 renal) | TGI (HOP-62 NSCLC) | TGI (SN12C renal) | TGI (MOLT-4 leukemia) | TGI (CAKI-1 renal) | TGI (M14 melanoma) | TGI (OVCAR-4 ovarian) | TGI (MCF7 breast) | TGI (RXF 393 renal) |
| --- | --- | --- | --- | --- | --- | --- | --- | --- | --- | --- |
| N#CN=C(N(Cc1ccccc1)Cc1ccccc1)N(Cc1ccccc1)Cc1ccccc1 | 83.8 µM | > 100 µM | > 100 µM | > 100 µM | > 100 µM | > 100 µM | > 100 µM |  |  |  |
| Clc1cc(OC2C3CC4CC(C3)CC2C4)nc(Cl)n1 (centres undefined) | 12.9 µM | 39.6 µM | 67.1 µM | 31 µM | 34.8 µM |  | 32.5 µM | 34.3 µM | 35.2 µM | 27.4 µM |
| O=C(O)c1cccc2c1/C(=N/Nc1ccccc1)CC2 |  | > 100 µM | > 100 µM |  | > 100 µM | > 100 µM | > 100 µM | > 100 µM | > 100 µM | > 100 µM |
| CC[C@@]1(C[C@H]2C[C@@]3(C(=O)OC)c4[nH]c5ccccc5c4CCN3C2=O)COC2(CCCCC2)O1 | > 100 µM |  | > 100 µM | > 100 µM | > 100 µM | > 100 µM | > 100 µM | > 100 µM | 91.4 µM | > 100 µM |
| Nc1cccc2cc(Cl)cnc12 | > 100 µM | > 100 µM | > 100 µM | > 100 µM | > 100 µM | > 100 µM | > 100 µM | > 100 µM |  | > 100 µM |
| C[C@]12CC[C@H](O)CC1=CC[C@@H]1C2CC[C@]2(C)C(=O)N(N)C(=O)CC12 (some centres undefined) | > 100 µM | > 100 µM | > 100 µM | > 100 µM | > 100 µM | > 100 µM | > 100 µM | > 100 µM |  | > 100 µM |
| CCNC(=S)N/N=C/c1cc([N+](=O)[O-])ccc1O | 40.8 µM | 69.1 µM | > 100 µM | > 100 µM | 63.7 µM |  | > 100 µM | 72.8 µM | 4.4 µM | > 100 µM |
| CC(N)Cc1ccc(C(=O)Cl)cc1 (centres undefined) |  | > 100 µM | > 100 µM | > 100 µM | > 100 µM | > 100 µM | > 100 µM | > 100 µM |  | > 100 µM |
| COc1cc([C@@H]2OCC3C(c4ccc5c(c4)OCO5)OCC32)cc(OC)c1OC (some centres undefined) | > 100 µM | > 100 µM | > 100 µM | > 100 µM | > 100 µM | > 100 µM | > 100 µM | > 100 µM |  | > 100 µM |
| O=C(Cc1cccs1)N[C@@H]1C(=O)N2C(C(=O)OC(c3ccccc3)c3ccccc3)=C(CO)CS[C@H]12 | > 100 µM | > 100 µM |  | > 100 µM | > 100 µM | > 100 µM | > 100 µM | > 100 µM | > 100 µM | > 100 µM |
| CC1=C(C)[C@@]2(C)O[C@@]2(C)O[C@@]2(C)O[C@@]12C |  | > 100 µM | > 100 µM | > 100 µM |  | > 100 µM | > 100 µM | > 100 µM | > 100 µM |  |
| NC(=O)C(c1ccccc1)N1OC2C(=O)N(c3ccccc3)C(=O)C2C1c1c2ccccc2c(Cl)c2ccccc12 (centres undefined) | > 100 µM |  | > 100 µM | > 100 µM | > 100 µM | > 100 µM | > 100 µM | > 100 µM | > 100 µM | > 100 µM |
| Cc1cn(C2CC(N(O)C(N)=O)C(CO)O2)c(=O)[nH]c1=O (centres undefined) |  | > 100 µM | > 100 µM | > 100 µM | > 100 µM | > 100 µM | > 100 µM | > 100 µM | > 100 µM | > 100 µM |
| O=C(NNC(=O)c1ccccc1SSc1ccccc1C(=O)NNC(=O)c1ccccc1S)c1ccccc1S | 9.49 µM |  | > 100 µM | > 92.6 µM | > 87 µM | > 100 µM | > 100 µM | > 100 µM | > 100 µM | > 100 µM |
| FC(F)(F)c1cc(Cl)cnc1N/N=C(/c1ccccc1)c1ccccn1 |  |  | 19.7 µM | > 100 µM | 8.82 µM | 22.7 µM | 5.04 µM | 29.4 µM | 17 µM | 40.9 µM |
| COc1ccc(/C=C2\CCC(C)C3=C2NC(=S)NC3c2ccc(OC)c(OC)c2)cc1OC (centres undefined) | > 31.6 µM | > 31.6 µM | > 100 µM | > 31.6 µM | 25.3 µM | > 31.6 µM | > 31.6 µM | > 100 µM | > 31.6 µM |  |
| O=C(O)CN(CC(=O)O)C1CCCCC1N(CC(=O)O)CC(=O)NCCN=C=S (centres undefined) | > 100 µM | > 100 µM | > 100 µM | > 100 µM | > 100 µM | > 100 µM | > 100 µM |  | > 100 µM | > 100 µM |
| Oc1cc2c3c(c1)c1cc4c(cc1c[n+]3CC2)OCO4 | > 27.3 µM | > 74.7 µM | > 100 µM | 5.71 µM |  | > 50.3 µM | > 100 µM | > 48.6 µM | > 100 µM | > 68.8 µM |
| COC(=O)[C@H]1CO[C@@H](C(C)(C)C)N1C(=O)N1C=CC(=O)C[C@@H]1C | > 100 µM | > 100 µM | > 100 µM | > 100 µM |  | > 100 µM |  |  | > 100 µM | > 100 µM |
| O=C1c2ccccc2C2C1N2C(=O)C(F)(F)F (centres undefined) | 91.5 µM | > 100 µM | > 100 µM | > 100 µM | > 100 µM | > 100 µM | > 100 µM | > 100 µM |  | > 100 µM |
| O=C1C(=Cc2ccc(O)cc2)N=C(c2ccccc2)N1n1c(-c2ccccc2)nc2ccccc2c1=O | > 100 µM |  | > 100 µM |  | > 100 µM | > 100 µM | > 100 µM |  | > 100 µM |  |
| COc1ccc2c(=O)c(O)c(-c3ccc(OC)c(OC)c3)oc2c1 | 5.22 µM | > 100 µM | 36.1 µM |  | > 100 µM | 13 µM | > 100 µM | 0.599 µM | > 100 µM |  |
| CC(C)/C(Cl)=N\OC(=O)Nc1ccc(S(N)(=O)=O)cc1 |  | 31.7 µM | > 57.2 µM | 29.2 µM | 5.42 µM | 31.1 µM | 22.1 µM | 40.1 µM | 27.7 µM | 25.2 µM |
